Assays:
[1] = target: Muscarinic acetylcholine receptor M3 (Cavia porcellus) (UniProt Q8VH26)
Description: Compound was evaluated for dissociation constant (KA), determined from potency against Muscarinic acetylcholine receptor M3 in an isolated tissue assay (guinea pig trachea)

[2] = target: T1, Muscarinic acetylcholine receptor M2 (Rattus norvegicus, UniProt P10980)
T1 sequence (P10980 whole entry): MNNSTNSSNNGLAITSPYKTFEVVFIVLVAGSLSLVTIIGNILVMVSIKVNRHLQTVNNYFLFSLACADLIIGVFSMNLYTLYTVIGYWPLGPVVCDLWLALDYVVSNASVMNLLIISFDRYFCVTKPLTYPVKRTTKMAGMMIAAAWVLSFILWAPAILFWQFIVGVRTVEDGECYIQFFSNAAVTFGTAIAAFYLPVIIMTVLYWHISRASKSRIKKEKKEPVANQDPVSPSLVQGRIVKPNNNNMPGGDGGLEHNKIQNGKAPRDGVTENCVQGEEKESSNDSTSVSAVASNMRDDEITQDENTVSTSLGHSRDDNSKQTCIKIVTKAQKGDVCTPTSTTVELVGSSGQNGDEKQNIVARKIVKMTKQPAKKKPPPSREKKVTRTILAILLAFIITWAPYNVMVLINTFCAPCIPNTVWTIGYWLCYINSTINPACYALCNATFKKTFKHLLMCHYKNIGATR
Description: Compound was evaluated for its affinity towards Muscarinic acetylcholine receptor M2, using [3H]- N-methyl-scopolamine, a radioligand displacement assay in rat heart membranes

[3] = target: T2, Muscarinic acetylcholine receptor M1 (Rattus norvegicus, UniProt P08482)
T2 sequence (P08482 whole entry): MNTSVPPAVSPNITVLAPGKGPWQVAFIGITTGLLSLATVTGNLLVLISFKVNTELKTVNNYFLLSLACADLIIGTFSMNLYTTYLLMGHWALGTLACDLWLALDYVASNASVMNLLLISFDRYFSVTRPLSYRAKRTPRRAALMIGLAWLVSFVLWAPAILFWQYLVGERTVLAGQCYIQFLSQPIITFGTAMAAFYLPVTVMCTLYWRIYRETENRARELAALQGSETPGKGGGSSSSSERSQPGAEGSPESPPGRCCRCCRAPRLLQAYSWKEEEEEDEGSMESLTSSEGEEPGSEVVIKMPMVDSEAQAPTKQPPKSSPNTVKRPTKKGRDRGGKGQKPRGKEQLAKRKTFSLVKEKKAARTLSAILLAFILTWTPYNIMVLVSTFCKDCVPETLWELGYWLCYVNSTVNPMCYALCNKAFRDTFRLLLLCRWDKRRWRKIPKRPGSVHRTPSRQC
Description: Compound was evaluated for its affinity towards Muscarinic acetylcholine receptor M1, using [3H]- pirenzepine, a radioligand displacement assay in rat hippocampal membranes

Chain of Muscarinic acetylcholine receptor M3 (Cavia porcellus) (Q8VH26 1-587): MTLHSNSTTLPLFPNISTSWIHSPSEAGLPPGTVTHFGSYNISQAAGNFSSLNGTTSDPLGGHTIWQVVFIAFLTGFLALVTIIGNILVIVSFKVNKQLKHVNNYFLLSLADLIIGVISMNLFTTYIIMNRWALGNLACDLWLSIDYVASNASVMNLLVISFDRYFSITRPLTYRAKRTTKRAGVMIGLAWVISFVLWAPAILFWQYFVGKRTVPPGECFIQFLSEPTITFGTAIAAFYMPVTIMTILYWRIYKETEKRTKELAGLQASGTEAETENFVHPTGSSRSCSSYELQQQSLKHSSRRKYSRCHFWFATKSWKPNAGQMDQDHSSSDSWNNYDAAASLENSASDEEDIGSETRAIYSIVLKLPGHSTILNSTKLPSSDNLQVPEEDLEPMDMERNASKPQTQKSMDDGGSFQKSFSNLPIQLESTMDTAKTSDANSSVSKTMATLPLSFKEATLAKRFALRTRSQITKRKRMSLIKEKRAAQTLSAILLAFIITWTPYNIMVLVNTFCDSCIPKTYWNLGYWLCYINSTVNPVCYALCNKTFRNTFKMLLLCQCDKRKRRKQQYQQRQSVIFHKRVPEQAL

Row | KA [1] [µM] | Ki [2] [µM] | Ki [3] [µM] | Compound
1 | 0.7 | 5.3 | 3.8 | CC1OC2(CCN(C)CC2)CC1=O (centres undefined)
2 | 4.5 | 37 | 26 | C[C@H]1OC2(CCN(C)CC2)CC1=O
3 | 0.28 | 2.5 | 4.1 | C[C@@H]1OC2(CCN(C)CC2)CC1=O
